Experimental data from PubChem BioAssay (NCI).
“And” between values parts separate entries of the source, which are not always exact repeats. Equal values may be shown once.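 Test compounds were applied to cells in 96-well plates for 48 hours at 5 doses. Here, GI50 denotes the concentration required for 50% inhibition of growth. TGI: total growth inhibition.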

Legend:
Experiment in all cases: growth of human tumour cells (NCI), 48 h
HS 578T breast = test system: HS 578T breast
T-47D breast = test system: T-47D breast
BT-549 breast = test system: BT-549 breast
786-0 renal = test system: 786-0 renal
COLO 205 colon = test system: COLO 205 colon
CCRF-CEM leukemia = test system: CCRF-CEM leukemia
UACC-257 melanoma = test system: UACC-257 melanoma
A549 NSCLC = test system: A549 NSCLC
SNB-19 CNS = test system: SNB-19 CNS
K-562 leukemia = test system: K-562 leukemia

Row | SMILES | GI50 (HS 578T breast) | TGI (HS 578T breast) [µM] | GI50 (T-47D breast) | TGI (T-47D breast) | GI50 (BT-549 breast) | TGI (BT-549 breast) | GI50 (786-0 renal) | TGI (786-0 renal) | GI50 (COLO 205 colon) | TGI (COLO 205 colon) | GI50 (CCRF-CEM leukemia) | TGI (CCRF-CEM leukemia) | GI50 (UACC-257 melanoma) | TGI (UACC-257 melanoma) | GI50 (A549 NSCLC) | TGI (A549 NSCLC) | GI50 (SNB-19 CNS) | TGI (SNB-19 CNS) | GI50 (K-562 leukemia) | TGI (K-562 leukemia)
1 | Cc1nc2sc(C(=O)Nc3cccc4ccccc34)c(N)c2cc1C(=O)/C=C/c1ccccc1 | 0.281 µM | > 50 | 0.724 µM | > 11 µM | 0.413 µM | 1.92 µM | 0.25 µM | 0.979 µM | 0.957 µM | 2.64 µM | 0.178 µM | > 24.9 µM | 5.09 µM | > 30.3 µM | 0.463 µM | > 50 µM | 0.534 µM | > 17 µM | 0.191 µM | > 50 µM
2 | O=C1c2ccc3c4c5ccc(c24)C(=O)N1CCCOCCCCOCCCNCc1ccc(cc1)CNCCCOCCCCOCCCN(C3=O)C5=O | 1.4 µM | 5.32 | 0.997 µM | 2.28 µM | 1.62 µM | 4.87 µM | 0.956 µM | 2.02 µM | 0.531 µM | 1.26 µM | 0.889 µM | 2.84 µM | 0.989 µM | 1.98 µM | 1.01 µM | 2.07 µM | 0.991 µM | 2.27 µM | 0.987 µM | 2.4 µM
3 | Cc1ccc(/C=C2/SC(Nc3nc(-c4nc(NC5=NC(=O)/C(=C\c6ccc(C)cc6)S5)sc4C)c(C)s3)=NC2=O)cc1 | 0.0926 µM | 1.14 | 22.3 µM | > 50 µM | 1.21 µM | 31.9 µM | 0.487 µM | 8.4 µM | 35.2 µM | > 50 µM | 2.44 µM | > 50 µM | 1.04 µM | 20.5 µM | 1.37 µM | > 36.6 µM | 10.1 µM | > 50 µM | 0.418 µM | > 50 µM
4 | CN(C)c1ccc(-c2cc(-c3ccc(Nc4nc(Nc5ccccc5)nc(Nc5ccc(Cl)cc5)n4)cc3)nc(N)n2)cc1 | 2.57 µM | 20.2 | 3.04 µM | 17.9 µM | 3.64 µM | 25 µM | 6.32 µM | 46 µM | 2.04 µM | 11.6 µM | 3.73 µM | 23 µM | 5.81 µM | 37.4 µM | 5.34 µM | > 100 µM | 13.5 µM | 69.2 µM | 2.61 µM | 11.4 µM
5 | C=CC1=C[C@@H]2[C@@H]3O[C@]4(CC[C@H](O4)[C@@H](C)C[C@@H](O)C3=O)C[C@H](O)C3=NCC[C@@]32CC1 | < 0.00333 µM | < 0.00333 | < 0.00333 µM | 0.00634 µM | < 0.00333 µM | < 0.00333 µM | < 0.00333 µM | 0.00341 µM | < 0.00333 µM | < 0.00333 µM | < 0.00333 µM | > 33.3 µM | < 0.00333 µM | 0.00486 µM | < 0.00333 µM | 0.00459 µM | < 0.00333 µM | < 0.00333 µM | < 0.00333 µM | > 33.3 µM
6 | O=C(CCCCCCSc1nc(-c2ccccc2)cc(-c2ccccc2)n1)NO | 1.56 µM | 14.5 | 1.86 µM | 8.21 µM | 3.16 µM | 18.4 µM | 1.91 µM | 4.48 µM | 2.67 µM | 10.7 µM | 0.535 µM | 5.36 µM | 2.23 µM | 11.1 µM | 2.45 µM | 10.4 µM | 2.69 µM | 11.3 µM | 1.58 µM | 12 µM
7 | CS(=O)(=O)c1ccc(-c2cnc(N)c(C(=O)Nc3ccccc3)n2)cc1 | > 100 µM | > 100 | > 100 µM | > 100 µM | 7.87 µM | 40.8 µM | 3.71 µM | > 100 µM | > 43 µM | > 100 µM | 4 µM | > 100 µM | > 100 µM | > 100 µM | > 24.2 µM | > 100 µM | > 81.5 µM | > 100 µM | 5.34 µM | > 100 µM
8 | O=C1Nc2ccccc2C1Cc1ccc([N+](=O)[O-])cc1 (stereo not given) | – | > 100 | – | > 100 µM | – | > 100 µM | – | > 100 µM | – | > 100 µM | – | > 100 µM | – | > 100 µM | – | > 100 µM | – | > 100 µM | – | > 100 µM
9 | CCN1CCN(CC(=O)Nc2nc3ccc(NCc4ccc(Cl)cc4)cc3s2)CC1 | 2.59 µM | 9.09 | 1.94 µM | 5.8 µM | 10.6 µM | 25 µM | 6.38 µM | 20.1 µM | 1.82 µM | 3.5 µM | 2.43 µM | 8.22 µM | 2.65 µM | 6.86 µM | 2.76 µM | 8.01 µM | 3.12 µM | 10.7 µM | 1.63 µM | 4.14 µM
10 | C=C(C)C(=O)OC1CC2=CC(CC3(C)OC3C3OC(=O)C(=C)C13)OC2=O (stereo not given) | – | 44.3 | – | 22.6 µM | – | 25 µM | – | 20.5 µM | – | 7.08 µM | 1.63 µM | 5.59 µM | – | 13.7 µM | – | 36.5 µM | – | 33.9 µM | 2.62 µM | 9.8 µM
11 | O=C1/C(=C/c2ccccc2F)CNC/C1=C\c1ccccc1F | 0.533 µM and 4.11 µM | – | 1.07 µM and 2.6 µM | 6.1 µM and 12.2 µM | 0.434 µM and 0.782 µM | 1.43 µM and 2.25 µM | 0.233 µM and 0.739 µM | 0.505 µM and 2.15 µM | 0.82 µM and 0.584 µM | 2.57 µM and 1.82 µM | 0.193 µM and 0.314 µM | 3.38 µM and 1.61 µM | 1.62 µM and 1.73 µM | 4.16 µM and 3.95 µM | 1.81 µM and 1.27 µM | 9.35 µM and 5.59 µM | 0.643 µM and 1.01 µM | 2.66 µM and 3.99 µM | 0.27 µM and 0.341 µM | 2.27 µM and 2.63 µM
12 | Nc1ncnc2c1ncn2CC(O)C(=O)O (stereo not given) | – | > 100 | – | > 100 µM | – | > 100 µM | – | > 100 µM | – | > 100 µM | – | > 100 µM | – | > 100 µM | – | > 100 µM | – | > 100 µM | – | > 100 µM
13 | COc1ccc(-c2nnc(SCC(=O)Nc3ccc(/C(C)=N\O)cc3)n2-c2ccccc2)cc1OC | 3.75 µM | > 100 | 9.45 µM | > 100 µM | 13.7 µM | > 100 µM | 14.9 µM | > 100 µM | > 100 µM | > 100 µM | > 100 µM | > 100 µM | > 100 µM | > 100 µM | 9.73 µM | > 100 µM | 6.43 µM | > 100 µM | > 100 µM | > 100 µM
14 | CN(c1ccc(NC(=O)Nc2ccc(OC(F)(F)F)cc2)cc1)c1ccnc(Nc2cccc(S(N)(=O)=O)c2)n1 | 4.14 µM | 17 | 3.51 µM | 9.35 µM | 4.31 µM | 8.3 µM | 5.25 µM | 12 µM | 0.317 µM | 3.5 µM | 0.412 µM | 25 µM | 3.77 µM | 9.14 µM | 2.68 µM | 9.83 µM | 5.49 µM | 14.3 µM | 0.0874 µM | 4.31 µM
15 | O=Cc1cn(Cc2cccc(Cl)c2)c2ccccc12 | 7.27 µM | 34.1 | 0.736 µM | 13.4 µM | 5.25 µM | 18.6 µM | 8.95 µM | 24.4 µM | 0.355 µM | 14 µM | 9.99 µM | 50.3 µM | 1.05 µM | 3.63 µM | 15.9 µM | 48.5 µM | 12.9 µM | 27.3 µM | 2.97 µM | > 56.7 µM
16 | CN1CCN(c2nc(NCCCCNc3ccnc4cc(Cl)ccc34)c3ccccc3n2)CC1 | 5.48 µM | 26 | 2.23 µM | 6.65 µM | 3.45 µM | 15 µM | 1.65 µM | 3.26 µM | 2.1 µM | 5.46 µM | 2.62 µM | 93.9 µM | 2.03 µM | 3.9 µM | 5.19 µM | 20.5 µM | 4.28 µM | 20.8 µM | 2.53 µM | 11.8 µM
17 | Cn1ccnc1C(=O)/C=C/c1ccc(CC(=O)Nc2ccc(S(F)(F)(F)(F)F)cc2)cc1 | 4.91 µM | 16.4 | 3.1 µM | 10.4 µM | 2.5 µM | 5.29 µM | 0.788 µM | 3 µM | 3.08 µM | 6.66 µM | 0.538 µM | 16.7 µM | 4.35 µM | 10.5 µM | 3.32 µM | 9.15 µM | 2.23 µM | 4.82 µM | 0.549 µM | 16.7 µM
18 | Cn1c(=O)c(Oc2ccc(F)cc2F)cc2cnc(NC(CO)CO)nc21 | > 25 µM | > 25 | > 25 µM | > 25 µM | > 25 µM | > 25 µM | > 25 µM | > 25 µM | > 25 µM | > 25 µM | > 25 µM | > 25 µM | > 25 µM | > 25 µM | > 25 µM | > 25 µM | > 25 µM | > 25 µM | > 25 µM | > 25 µM
19 | CN(CC(=O)O)c1ccc(/C=C/c2ccnc3ccccc23)cc1 | – | 75 | – | > 100 µM | – | 70.4 µM | – | > 100 µM | – | 34.3 µM | – | 72.5 µM | – | 65.4 µM | – | 61.4 µM | – | > 100 µM | – | > 100 µM
20 | C/C(=C\c1ccn(-c2ccc(N)c(F)c2)n1)[C@@H]1C[C@@H]2O[C@]2(C)CCC[C@H](C)[C@H](O)[C@@H](C)C(=O)C(C)(C)[C@@H](O)CC(=O)O1 | 0.0108 µM | – | 0.0249 µM | > 50 µM | 0.041 µM | 25.4 µM | 0.0253 µM | > 50 µM | 0.00845 µM | 0.128 µM | 0.0114 µM | > 50 µM | 0.0458 µM | > 50 µM | 0.0118 µM | > 50 µM | 0.048 µM | > 50 µM | 0.00912 µM | > 50 µM
